Source: BindingDB's records for doi:10.1016/j.bioorg.2013.06.006 (North-West University, Private Bag X6001, Potchefstroom …, 2013)

Target: Adenosine receptor A2a (Rattus norvegicus, UniProt P30543)
Sequence (P30543 whole entry): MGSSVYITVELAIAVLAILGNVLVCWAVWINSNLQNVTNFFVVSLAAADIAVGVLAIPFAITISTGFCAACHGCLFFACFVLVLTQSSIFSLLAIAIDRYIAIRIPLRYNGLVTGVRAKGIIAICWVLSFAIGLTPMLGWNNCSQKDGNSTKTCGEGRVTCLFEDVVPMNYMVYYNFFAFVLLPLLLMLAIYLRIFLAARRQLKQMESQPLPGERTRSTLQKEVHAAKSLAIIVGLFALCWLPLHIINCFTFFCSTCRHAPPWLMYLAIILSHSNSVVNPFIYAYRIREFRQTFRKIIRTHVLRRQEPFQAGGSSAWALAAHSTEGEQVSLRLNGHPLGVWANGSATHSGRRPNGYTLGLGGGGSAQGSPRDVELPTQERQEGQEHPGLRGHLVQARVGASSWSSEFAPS

SMILES | Ki
CCn1c(/C=C/c2ccc(Cl)c(Cl)c2)nc2c1c(=O)n(C)c(=O)n2C [(E)-8-(3,4-Dichlorostyryl)-1,3-dimethyl-7-ethylxanthine (5c)] | 32.9 nM
CCn1c(/C=C/c2cccc(Cl)c2)nc2c1c(=O)n(C)c(=O)n2C [(E)-8-(3-Chlorostyryl)-1,3-dimethyl-7-ethylxanthine (5a)] | 421 nM
CCn1c(=O)c2c(nc(COc3ccccc3)n2C)n(CC)c1=O [8-Phenoxymethyl-1,3-diethyl-7-methylxanthine (8c)] | > 1000 nM
CCn1c(/C=C/c2ccc(Br)cc2)nc2c1c(=O)n(C)c(=O)n2C [(E)-8-(4-Bromostyryl)-1,3-dimethyl-7-ethylxanthine (5e)] | 546 nM
Cn1c(=O)c2c(nc(/C=C/c3ccc(Br)cc3)n2C)n(C)c1=O [(E)-8-(4-Bromostyryl)-1,3,7-trimethylxanthine (4d)] | 127 nM
CCn1c(/C=C/c2ccc(Cl)cc2)nc2c1c(=O)n(C)c(=O)n2C [(E)-8-(4-Chlorostyryl)-1,3-dimethyl-7-ethylxanthine (5b)] | 95.3 nM
CCn1c(=O)c2c(nc(/C=C/c3ccc(Cl)c(Cl)c3)n2CC)n(CC)c1=O [(E)-8-(3,4-Dichlorostyryl)-1,3,7-triethylxanthine (7c)] | 428 nM
CCn1c(=O)c2c(nc(/C=C/c3ccc(Br)cc3)n2CC)n(CC)c1=O [(E)-8-(4-Bromostyryl)-1,3,7-triethylxanthine (7e)] | 83 nM
CCn1c(COc2ccccc2)nc2c1c(=O)n(C)c(=O)n2C [8-Phenoxymethyl-1,3-dimethyl-7-ethylxantine (8b)] | > 1000 nM
CCn1c(=O)c2c(nc(/C=C/c3ccc(Cl)cc3)n2CC)n(CC)c1=O [(E)-8-(4-Chlorostyryl)-1,3,7-triethylxanthine (7b)] | > 1000 nM
Cn1c(=O)c2c(nc(COc3ccccc3)n2C)n(C)c1=O | 137 nM
CCn1c(/C=C/c2cccc(C(F)(F)F)c2)nc2c1c(=O)n(C)c(=O)n2C [(E)-8-[3-(Trifluoromethyl)styryl]-1,3-dimethyl-7-ethylxanthine (5f)] | 93.8 nM
Cn1c(=O)c2c(nc(/C=C/c3cccc(C(F)(F)F)c3)n2C)n(C)c1=O | 125 nM
CCn1c(=O)c2c(nc(CCCc3ccccc3)n2CC)n(CC)c1=O [8-(3-Phenylpropyl)-1,3,7-triethylxanthine (9d)] | > 1000 nM
CCn1c(CCCc2ccccc2)nc2c1c(=O)n(C)c(=O)n2C [8-(3-Phenylpropyl)-1,3-dimethyl-7-ethylxanthine (9b)] | > 1000 nM
CCn1c(=O)c2c(nc(CCCc3ccccc3)n2C)n(CC)c1=O [8-(3-Phenylpropyl)-1,3-diethyl-7-methylxanthine (9c)] | > 1000 nM
Cn1c(=O)c2c(nc(CCCc3ccccc3)n2C)n(C)c1=O [8-(3-Phenylpropyl)-1,3,7-trimethylxanthine (9a)] | > 1000 nM
Cn1c(=O)c2c(nc(/C=C/c3ccc(Cl)c(Cl)c3)n2C)n(C)c1=O [(E)-8-(3,4-Dichlorostyryl)caffeine (4b)] | 44.8 nM
Cn1c(=O)c2c(nc(/C=C/c3ccc(Cl)cc3)n2C)n(C)c1=O | 169 nM
CCn1c(=O)c2c(nc(COc3ccccc3)n2CC)n(CC)c1=O [8-Phenoxymethyl-1,3,7-triethylxanthine (8d)] | > 1000 nM

Other lines, results leading:

Ki | SMILES
28.4 nM | Cn1c(=O)c2c(nc(/C=C/c3cccc(Br)c3)n2C)n(C)c1=O [(E)-8-(3-Bromostyryl)-1,3,7-trimethylxanthine (4c)]
11.9 nM | CCn1c(=O)c2c(nc(/C=C/c3cccc(C(F)(F)F)c3)n2C)n(CC)c1=O [(E)-8-[3-(Trifluoromethyl)styryl]-1,3-diethyl-7-methylxanthine (6f)]
17.2 nM | CCn1c(=O)c2c(nc(/C=C/c3cccc(Br)c3)n2C)n(CC)c1=O [(E)-8-(3-Bromostyryl)-1,3-diethyl-7-methylxanthine (6d)]
58.2 nM | CCn1c(/C=C/c2cccc(Br)c2)nc2c1c(=O)n(C)c(=O)n2C [(E)-8-(3-Bromostyryl)-1,3-dimethyl-7-ethylxanthine (5d)]
28.9 nM | CCn1c(=O)c2c(nc(/C=C/c3ccc(Br)cc3)n2C)n(CC)c1=O [(E)-8-(4-Bromostyryl)-1,3-diethyl-7-methylxanthine (6e)]
> 1000 nM | CCn1c(=O)c2c(nc(/C=C/c3cccc(Cl)c3)n2CC)n(CC)c1=O [(E)-8-(3-Chlorostyryl)-1,3,7-triethylxanthine (7a)]
> 1000 nM | CCn1c(=O)c2c(nc(/C=C/c3cccc(C(F)(F)F)c3)n2CC)n(CC)c1=O [(E)-8-[3-(Trifluoromethyl)styryl]-1,3,7-triethylxanthine (7f)]
24.3 nM | CCn1c(=O)c2c(nc(/C=C/c3cccc(Cl)c3)n2C)n(CC)c1=O [(E)-8-(3-Chlorostyryl)-1,3-diethyl-7-methylxanthine (6a)]
161 nM | CCn1c(=O)c2c(nc(/C=C/c3cccc(Br)c3)n2CC)n(CC)c1=O [(E)-8-(3-Bromostyryl)-1,3,7-triethylxanthine (7d)]
